Results as given in PMC12332667, “Role of Structural Modifications in Peptidomimetic Compounds as Potential Antimicrobial Agents against Staphylococcus aureus and Streptococcus pyogenes: Balancing Bioavailability, Safety, and Antimicrobial Activity” (ACS Omega, 2025).
Values after ≈ are worked out from the molar mass of the structure shown. Read-outs that look alike come from different tables or passages of the source.

Experiments:
[1] = system: primary human keratinocytes; design: method as in PMID 28110818; conditions: concentrations up to 50 μg/mL; reference number not given, probably ref 22; cited from earlier work
E. faecalis c.i. = test: MIC/MBC broth microdilution, E. faecalis; type: cell-based, Enterococcus faecalis
Procedure, shortened: (§1)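 BHI broth microdilution (NCCLS); ~10^5 CFU/mL; 37 °C, 18 h. MIC = lowest conc., no visible growth (≥90% vs untreated). MBC = ≤3 colonies, ≥99.9% kill. Water/DMSO/EtOH solvent controls; technical triplicate ×3 biological repeats.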

E. coli ATCC 25922 = test: MIC/MBC broth microdilution, E. coli; type: cell-based, Escherichia coli
Procedure, shortened: as §1

[2] = system: K. pneumoniae ATCC 700603; test: MIC/MBC broth microdilution, K. pneumoniae; type: cell-based
Procedure, shortened: as §1

S. intemrdius c.i. = test: MIC/MBC broth microdilution, S. intermedius; type: cell-based, Staphylococcus intermedius; conditions: Staphylococcus intermedius
Procedure, shortened: as §1

S. cohnii c.i. = test: MIC/MBC broth microdilution, S. cohnii; type: cell-based, Staphylococcus cohnii; conditions: Staphylococcus cohnii; for MIC: read-out: MIC
Procedure, shortened: as §1

S. mutans c.i. = test: MIC/MBC broth microdilution, S. mutans; type: cell-based, Streptococcus mutans
Procedure, shortened: as §1

S. schleiferi c.i. = test: MIC/MBC broth microdilution, S. schleiferi; type: cell-based, Staphylococcus schleiferi; conditions: Staphylococcus schleiferi; for MBC: read-out: MBC; for MIC: read-out: MIC
Procedure, shortened: as §1

S. agalactiae ATCC 27956 = test: MIC/MBC broth microdilution, S. agalactiae; type: cell-based, Streptococcus agalactiae; conditions: Streptococcus agalactiae, ATCC27956, S. agalactiae; for MBC: read-out: MBC; for MIC: read-out: MIC
Procedure, shortened: as §1

P. aeruginosa ATCC 10145 = test: MIC/MBC broth microdilution, P. aeruginosa; type: cell-based
Procedure, shortened: as §1

P. vulgaris ATCC 6896 = test: MIC/MBC broth microdilution, P. vulgaris; type: cell-based, Proteus vulgaris
Procedure, shortened: as §1

S. pyogenes ATCC 19615 = test: MIC/MBC broth microdilution, S. pyogenes; type: cell-based, Streptococcus pyogenes; conditions: for MBC: read-out: MBC
Procedure, shortened: as §1

S. aureus ATCC 43300 = test: MIC/MBC broth microdilution, S. aureus; type: cell-based, Staphylococcus aureus; conditions: S. aureus

## CC(C)C[C@H](NC(=O)[C@H](CCCNC(=N)N)NC(=O)OCc1ccccc1)C(=O)N[C@H](CNC(=O)/C=C/c1ccccc1)C(C)C [Compound A-20]
[1]
  impact on proliferation: no impact on the proliferation
E. faecalis c.i.; Enterococcus faecalis, H2O, read-out: MBC
  MBC: 256 µg/mL (≈ 403 µM)
E. faecalis c.i.; Enterococcus faecalis, H2O, read-out: MIC
  MIC: 128 µg/mL (≈ 201 µM)
E. faecalis c.i.; water additive DMSO
  MBC: 256 µg/mL (≈ 403 µM)
E. faecalis c.i.; water additive EtOH
  MBC: 256 µg/mL (≈ 403 µM)
E. coli ATCC 25922; Escherichia coli, ATCC25922, H2O, read-out: MBC
  MBC: 512 µg/mL (≈ 805 µM)
E. coli ATCC 25922; Escherichia coli, ATCC25922, H2O, read-out: MIC
  MIC: 256 µg/mL (≈ 403 µM)
E. coli ATCC 25922; water additive DMSO
  MBC: 512 µg/mL (≈ 805 µM)
  MIC: 256 µg/mL (≈ 403 µM)
E. coli ATCC 25922; water additive EtOH
  MBC: 512 µg/mL (≈ 805 µM)
  MIC: 256 µg/mL (≈ 403 µM)
[2]; Klebsiella pneumoniae, ATCC700603, H2O, read-out: MIC
  MIC: > 512 µg/mL
[2]; water additive DMSO
  MIC: > 512 µg/mL
[2]; water additive EtOH
  MIC: > 512 µg/mL
S. intemrdius c.i.; H2O
  MBC: 64 µg/mL (≈ 101 µM)
  MIC: 32 µg/mL (≈ 50.3 µM)
S. intemrdius c.i.; water additive DMSO
  MBC: 32 µg/mL (≈ 50.3 µM)
  MIC: 16 µg/mL (≈ 25.2 µM)
S. intemrdius c.i.; water additive EtOH
  MBC: 64 µg/mL (≈ 101 µM)
  MIC: 32 µg/mL (≈ 50.3 µM)
S. cohnii c.i.; H2O, read-out: MBC
  MBC: 64 µg/mL (≈ 101 µM)
S. cohnii c.i.; H2O
  MIC: 128 µg/mL (≈ 201 µM)
S. cohnii c.i.; water additive DMSO
  MIC: 64 µg/mL (≈ 101 µM)
S. cohnii c.i.; water additive EtOH
  MIC: 64 µg/mL (≈ 101 µM)
S. mutans c.i.; Streptococcus mutans, H2O, read-out: MIC
  MIC: 16 µg/mL (≈ 25.2 µM)
S. mutans c.i.; water additive DMSO
  MIC: 16 µg/mL (≈ 25.2 µM)
S. mutans c.i.; water additive EtOH
  MIC: 16 µg/mL (≈ 25.2 µM)
S. schleiferi c.i.; H2O
  MBC: 16 µg/mL (≈ 25.2 µM)
  MIC: 16 µg/mL (≈ 25.2 µM)
S. schleiferi c.i.; water additive DMSO
  MBC: 8 µg/mL (≈ 12.6 µM)
  MIC: 8 µg/mL (≈ 12.6 µM)
S. schleiferi c.i.; water additive EtOH
  MBC: 16 µg/mL (≈ 25.2 µM)
  MIC: 16 µg/mL (≈ 25.2 µM)
S. agalactiae ATCC 27956; H2O
  MBC: 256 µg/mL (≈ 403 µM)
  MIC: 128 µg/mL (≈ 201 µM)
S. agalactiae ATCC 27956; water additive DMSO
  MBC: 64 µg/mL (≈ 101 µM)
  MIC: 32 µg/mL (≈ 50.3 µM)
S. agalactiae ATCC 27956; water additive EtOH
  MBC: 128 µg/mL (≈ 201 µM)
  MIC: 64 µg/mL (≈ 101 µM)
P. aeruginosa ATCC 10145; Pseudomonas aeruginosa, ATCC10145, H2O, read-out: MIC
  MIC: > 512 µg/mL
P. aeruginosa ATCC 10145; water additive DMSO
  MIC: > 512 µg/mL
P. aeruginosa ATCC 10145; water additive EtOH
  MIC: > 512 µg/mL
P. vulgaris ATCC 6896; Proteus vulgaris, ATCC6896, H2O, read-out: MIC
  MIC: > 512 µg/mL
P. vulgaris ATCC 6896; water additive DMSO
  MIC: > 512 µg/mL
P. vulgaris ATCC 6896; water additive EtOH
  MIC: > 512 µg/mL
S. pyogenes ATCC 19615; S. pyogenes, H2O
  MIC: 8 µg/mL (≈ 12.6 µM)
S. pyogenes ATCC 19615; S. pyogenes, water additive EtOH
  MIC: 8 µg/mL (≈ 12.6 µM)
S. pyogenes ATCC 19615; Streptococcus pyogenes, ATCC19615, S. pyogenes, H2O
  MBC: 16 µg/mL (≈ 25.2 µM)
S. pyogenes ATCC 19615; Streptococcus pyogenes, ATCC19615, S. pyogenes, water additive EtOH
  MBC: 16 µg/mL (≈ 25.2 µM)
S. pyogenes ATCC 19615; Streptococcus pyogenes, ATCC19615, S. pyogenes, water additive DMSO
  MBC: 8 µg/mL (≈ 12.6 µM)
S. pyogenes ATCC 19615; Streptococcus pyogenes, ATCC19615, S. pyogenes, water additive DMSO, read-out: MIC
  MIC: 8 µg/mL (≈ 12.6 µM)
S. aureus ATCC 43300; water additive DMSO
  MBC: 32 µg/mL (≈ 50.3 µM)
  MIC: 16 µg/mL (≈ 25.2 µM)
S. aureus ATCC 43300; water additive EtOH
  MBC: 32 µg/mL (≈ 50.3 µM)
  MIC: 16 µg/mL (≈ 25.2 µM)
S. aureus ATCC 43300; Staphylococcus aureus, ATCC43300, H2O, read-out: MBC
  MBC: 32 µg/mL (≈ 50.3 µM)
S. aureus ATCC 43300; Staphylococcus aureus, ATCC43300, H2O, read-out: MIC
  MIC: 16 µg/mL (≈ 25.2 µM)
